BindingDB's records for PubMed 39740572 (Washington University School of Medicine)

Molecular target: T1, P2X purinoceptor 7 (Homo sapiens, UniProt Q99572)
T1 sequence (Q99572 whole entry): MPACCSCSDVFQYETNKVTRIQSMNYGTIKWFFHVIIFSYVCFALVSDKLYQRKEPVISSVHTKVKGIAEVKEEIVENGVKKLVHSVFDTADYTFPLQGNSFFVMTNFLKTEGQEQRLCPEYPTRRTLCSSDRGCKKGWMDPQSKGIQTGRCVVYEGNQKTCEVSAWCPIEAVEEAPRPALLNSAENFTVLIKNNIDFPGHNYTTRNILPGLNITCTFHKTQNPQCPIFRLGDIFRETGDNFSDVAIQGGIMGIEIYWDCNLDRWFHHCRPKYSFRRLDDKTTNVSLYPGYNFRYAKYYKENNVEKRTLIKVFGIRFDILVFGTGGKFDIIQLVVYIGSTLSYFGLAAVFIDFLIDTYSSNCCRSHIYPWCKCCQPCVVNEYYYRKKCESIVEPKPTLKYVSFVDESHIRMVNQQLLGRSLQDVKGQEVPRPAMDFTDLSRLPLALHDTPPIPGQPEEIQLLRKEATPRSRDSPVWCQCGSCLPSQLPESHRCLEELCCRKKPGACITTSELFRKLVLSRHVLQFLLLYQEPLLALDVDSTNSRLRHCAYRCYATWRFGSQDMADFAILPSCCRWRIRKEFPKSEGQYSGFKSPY
Assay: Binding affinity to human P2X7 receptor expressed in HEK293 cells assessed as inhibition of BzATP-induced increase in ethidium bromide uptake by fluorescence plate reader analysis

- IC50: 9.8 nM
Structure (SMILES): O=C(NCc1cccc(C(F)(F)F)c1Cl)[C@@H]1CCC(=O)N1C/C=C/I
